Test results published in patent US7351800B2, “Stabilized albumin preparations” (Nipro Corporation, priority 2002, dated 2008).

Columns and labels:
Type in all cases: physicochemical
HSA [1] = target: T1, HSA (Homo sapiens, UniProt P02768); assay: Aggregate-inhibition effect under heat with medium-chain fatty acids other than sodium caprylate (electrophoresis); details: 5-fold concentration (120 μM) of fatty acid added to 24-μM HSA phosphate buffer (67 mM, pH 7.4)
Description: The measurement samples used were such that 5-fold concentrations (120 μM) of the respective fatty acids were each added to a 24-μM HSA phosphate buffer (67 mM, pH 7.4).

HSA [2] = target: T1, HSA; assay: Differential scanning calorimetry (DSC) of HSA solutions: thermal stabilization effect; details: 100-μM HSA, 500-μM agent
Description: Each of various medical agents was added to 100-μM HSA ( 1/15 mM phosphate buffer, pH 7.4) and then the following medical agents under test were prepared:
The stabilization effect was evaluated in terms of a thermodynamic viewpoint by calculating a thermal transition temperature (Tm) and a change ΔHcal in enthalpy of transition from a differential scanning calorimetry (DSC) measurement on those medical agents under test (1) to (4). If the thermal transition temperature (Tm) increases, from the thermodynamic viewpoint, it means an increase in stability of the medical agents under test. In addition, if the change ΔHcal in enthalpy of transition increases, it means an increase in stability of the medical agents transition under test.
Those values were analyzed by a DSC thermogram of the HSA solution. Differential scanning calorimetry (DSC method)
For the DSC, measurement was made using the MC-2 differential scanning calorimeter manufactured by MicroCal Co., Ltd. The measuring conditions are shown below.
Albumin content: 100 μM Solvent: 1/15 M phosphate buffer (pH 7.4)
Reversibility of thermal denaturation was confirmed by cooling the albumin solution after first measurement and then heating the albumin solution again. […]

HSA [3] = target: T1, HSA; assay: Carbonyl content in HSA after oxidation with AAPH; details: oxidation with excess AAPH; compared with medical agent under test without addition
Description: An excess amount of an oxidizing agent, 2,2′-azobis-(2-amidinopropane) dihydrochloride (AAPH) was added to HSA to oxidize the HSA. After the oxidation for a predetermined time, the carbonyl content in HSA was determined.

T1 sequence (P02768 25-609): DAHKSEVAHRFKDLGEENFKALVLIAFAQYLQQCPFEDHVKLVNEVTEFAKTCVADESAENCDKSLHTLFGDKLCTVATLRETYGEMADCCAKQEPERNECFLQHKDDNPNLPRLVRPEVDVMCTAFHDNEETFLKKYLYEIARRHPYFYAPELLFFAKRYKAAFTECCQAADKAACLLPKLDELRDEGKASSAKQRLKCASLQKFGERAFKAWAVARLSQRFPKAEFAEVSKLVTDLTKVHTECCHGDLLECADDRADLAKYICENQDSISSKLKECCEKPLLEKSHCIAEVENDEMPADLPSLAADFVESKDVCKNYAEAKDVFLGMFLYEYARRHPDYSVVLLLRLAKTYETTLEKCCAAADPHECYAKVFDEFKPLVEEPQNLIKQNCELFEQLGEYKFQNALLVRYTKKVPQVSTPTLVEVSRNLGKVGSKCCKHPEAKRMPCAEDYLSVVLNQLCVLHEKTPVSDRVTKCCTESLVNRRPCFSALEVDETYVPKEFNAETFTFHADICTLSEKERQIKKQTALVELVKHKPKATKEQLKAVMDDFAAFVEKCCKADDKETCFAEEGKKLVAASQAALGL

change in Tm compared with HSA solution without added agent (in words) (HSA [2])	carbonyl content in HSA (degree of oxidation) (HSA [3])	SMILES	aggregate-inhibition effect under heat (HSA [1])	change in ΔHcal compared with HSA solution without added agent (in words) (HSA [2])
–	–	CCCCCCC(=O)O [enanthic acid]	slightly observed	–
slight increase in Tm	significant decrease in carbonyl content	CSCC[C@H](NC(C)=O)C(=O)O [N-acetyl methionine]	–	increase in change ΔHcal in enthalpy transition
–	–	CCCCCC(=O)O [caproic acid]	slightly observed	–
